Data on two molecules can be found in US4879300A, “Novel piperidine derivatives” (Dr. Lo. Zambeletti S.p.A., priority 1986, dated 1989).

Structures are written as SMILES. Where two headings read alike, the source gives them in different places.

For test [1], the target named is T1, K receptor (Kappa opioid receptor) (Cavia porcellus, UniProt P41144).
T1 construct: fresh guinea pig brain homogenate; from tissue; host or cells: guinea pig whole brain without cerebellum, homogenate
Description: Receptor binding to K sites (tritiated Ethylketocyclazocine, guinea pig brain homogenate). The conditions noted are these: tritiated Ethylketocyclazocine with 100 nM DADLE and 100 nM DAGO, 25° C., 40 min, read-out: Receptor binding k (kj). How it is done: (§1) Radio receptor binding to μ and K sites is performed on fresh guinea pig brain homogenate prepared according to Kosterlitz. (1981).
(§2) Whole brain without cerebellum is homogenized in 50 mM, Tris-buffer (pH 7.4 at 0° C.) and centrifuged at 49,000 ×g×10 min.
(§3) The pellet is then resuspended in the same buffer, incubated at 37° C. for 45 min. and centrifuged again.
(§4) 1.9 ml of the final homogenate (1:100 in Tris-pH 7.4, 0° C.) is used for the binding assay.
Binding to K sites (Magnan J., 1982)
The binding of tritiated Ethylketocyclazocine to brain homogenate is measured the in presence of 100 nanomolar D-Ala-D-LeuEnkephalin (DADLE) and 100 nanomolar DAGO, added to saturate the δ and μ opioid receptors respectively.
Final homogenate with solutions of the cold ligand and of the labelled ligand is incubated for 40 min. at 25° C., filtered through Whatman GF/C glass filter discs and washed.
The radioactivity bound to the filters is counted by liquid scintillation spectrophotometry.
MR 2266.500 nM is utilized to determine the saturable binding.
For the calculation of the kinetic parameters of the binding of labelled and unlabelled ligands, the equilibrium dissociation constant (KD), the inhibition constant (Ki) and the maximum number of binding sites (B max) are determined from saturation curves and competition experiments (Hill 1910; Scatchard 1949; Cheng and Prusoff 1973; Gillan et al. 1980). […]

A further test has as its system mice. The test is described as follows: Mouse tail-flick test (analgesic activity). In kind it is in vivo, mouse (male Charles River).
The target of another test is μ receptor (Cavia porcellus, UniProt A0ACM8Q262). The test is described as follows: Receptor binding to μ sites (3H-DAGO, guinea pig brain homogenate). The conditions noted are these: 25° C., 40 min, read-out: Receptor binding μ (kj). As for the experimental part:
as §1, §2, §3, §4
Binding to μ sites (Magnan J., 1982)
^3 H [D-Ala^2, MePhe^4, Gly-ol^5 ] Enkephalin (^3 H--DAGO), an enkephalin analogue that binds selectively to μ receptor, is added to the biological substrate and incubated at 25° C. for 40 min., filtered through Whatman GF-C and washed with ice-cold Tris-buffer.
The filters are then dryed, solubilized in Filtercount and the radioactivity monitored. Non specific binding is determined in the presence of 10^-6 M Naloxone.
For the calculation of the kinetic parameters of the binding of labelled and unlabelled ligands, the equilibrium dissociation constant (KD), the inhibition constant (Ki) and the maximum number of binding sites (B max) are determined from saturation curves and competition experiments (Hill 1910; Scatchard 1949; Cheng and Prusoff 1973; Gillan et al. 1980).
A concentration of radioligand near KD is used in the binding assays evaluating our compounds.

The mark [2] stands for this setting: sc, 0.5 h, s.c., reaction time recorded 30 min after dosing, % mice doubling initial time, read-out: Mouse tail-flick ED50 (s.c.).

T1 sequence (P41144 whole entry): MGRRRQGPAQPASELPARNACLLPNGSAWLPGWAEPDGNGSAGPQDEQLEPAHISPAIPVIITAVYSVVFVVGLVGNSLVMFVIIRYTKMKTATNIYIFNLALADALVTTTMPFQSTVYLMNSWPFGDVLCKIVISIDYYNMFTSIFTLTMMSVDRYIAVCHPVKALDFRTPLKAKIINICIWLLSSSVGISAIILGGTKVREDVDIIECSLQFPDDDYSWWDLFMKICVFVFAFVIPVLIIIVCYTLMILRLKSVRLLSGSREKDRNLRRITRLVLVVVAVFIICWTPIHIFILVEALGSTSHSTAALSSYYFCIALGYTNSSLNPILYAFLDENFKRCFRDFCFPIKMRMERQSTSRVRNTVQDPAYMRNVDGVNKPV
μ receptor, sequence (A0ACM8Q262 1-400): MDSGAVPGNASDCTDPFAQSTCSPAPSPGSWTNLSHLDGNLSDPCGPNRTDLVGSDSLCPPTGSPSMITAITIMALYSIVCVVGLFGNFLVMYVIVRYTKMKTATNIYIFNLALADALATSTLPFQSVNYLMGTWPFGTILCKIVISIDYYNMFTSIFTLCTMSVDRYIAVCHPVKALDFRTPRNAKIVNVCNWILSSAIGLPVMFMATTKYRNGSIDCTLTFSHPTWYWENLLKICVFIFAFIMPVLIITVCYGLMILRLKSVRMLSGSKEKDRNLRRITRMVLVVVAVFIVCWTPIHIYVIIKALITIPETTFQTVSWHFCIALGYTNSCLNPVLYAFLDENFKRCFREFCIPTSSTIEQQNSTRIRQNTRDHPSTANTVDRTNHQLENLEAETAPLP

Broadly, the ED50 is the dose at which the effect has come halfway, by size or by number of responders. On to `CC(C1CCCCN1C(=O)Cc1ccc(Cl)c(Cl)c1)N(C)C.Cl` (single isomer, unassigned; diastereoisomer b) [Example 4, 1-(3,4-dichlorophenylacetyl)-2-(1-dimethylaminoethyl) piperidine hydrochloride--Diastereoisomer B], for which the results for the Ki (in test [1]; on μ receptor) were 2.3 nM and 913 nM, respectively. Moreover, the ED50 in the test with mice (po, read-out: Mouse tail-flick ED50 (p.o.)) was determined as 0.75 mg/kg; in the test on mice (setting [2]) it was 0.41 mg/kg.

Turning to `CC(C1CCCCN1C(=O)Cc1ccc(Cl)c(Cl)c1)N1CCCC1` (single isomer, unassigned; diastereoisomer b) [Example 2, 1-(3,4-dichlorophenylacetyl)-2-[1-(1-pyrrolidinyl)ethylpiperidine]--Diastereoisomer B], in the test on mice (setting [2]), the ED50 turned out to be 4.12 mg/kg.
